Assay results from US6960347B2, “Composition based on N-cholesteryloxycarbonyl-4-para-aminophenol and hydroquinone or one of its derivatives” (L'Oreal, priority 2000, dated 2005).

System: fungal tyrosinase
Assay: in vitro inhibition of the activity of fungal tyrosinase (absorbance at 475 nm)
Format: biochemical
Conditions: for molar concentration for which an inhibition value of 25% is observed: compound dissolved in ethanol, phosphate buffer, L-tyrosine and L-Dopa substrates, OD 475 nm
Protocol: This test involves in measuring the absorbance (optical density OD) at 475 nm as a function of time for the hydroquinone dissolved (at various concentrations) in ethanol in the presence of a phosphate buffer, 1 ml of L-tyrosine at 2.0×10^−3 M in a phosphate buffer, 0.1 ml of L-Dopa at 1.0×10^−4 M in a phosphate buffer and 50 μl of a solution of fungal tyrosinase at 1 g/l in a phosphate buffer, compared with a control consisting of ethanol (solvent) used at the same concentration in the phosphate buffer.
The percentage of inhibition is determined by the following equation: [formula]
The molar concentration of hydroquinone for which an inhibition value of 25% is observed is then determined.
The test described in Example 1 above is used, except that N-ethyloxycarbonyl-4-para-aminophenol was substituted for N-cholesteryloxycarbonyl-4-para-aminophenol.

inhibition of tyrosinase (compound alone at C2=6.77×10^−5 M (solubility limit in DMSO))	molar concentration for which an inhibition value of 25% is observed	SMILES
no inhibition		CC(C)CCC[C@@H](C)[C@H]1CC[C@H]2[C@@H]3CC=C4C[C@@H](OC(=O)Nc5ccc(O)cc5)CC[C@]4(C)[C@H]3CC[C@]12C [N-cholesteryloxycarbonyl-4-para-aminophenol]
	125 µM	CCOC(=O)Nc1ccc(O)cc1 [N-ethyloxycarbonyl-4-para-aminophenol]
	80 µM	Oc1ccc(O)cc1 [hydroquinone]
